{
  "source": "patent US11685710B2",
  "about": "“Cationic sulfonamide amino lipids and amphiphilic zwitterionic amino lipids” (The Board of Regents of the University of Texas System, priority 2016, dated 2023)",
  "key": {"[1]": {"system": "A549-Luc cells", "assay": "Cas9 mRNA delivery: mRNA level (RT-qPCR) and Cas9 protein expression (western blot)", "format": "cell-based", "conditions": "for level of Cas9 mRNA: A549 lung cancer cells", "description": "The cells were lysed in cold RIPA buffer (Thermo Scientific), the lysate cleared by centrifugation and total protein in the supernatant quantified by the BCA assay (Pierce). 50 μg total protein was loaded on 4-20% precast polyacrylamide gel and transferred to a nitrocellulose membrane (BioRad). The membrane was blocked in 5% nonfat milk for 1 hour at RT, and then incubated with primary antibody at 4° C. overnight (Cas9 antibody, 1:1000, Cell Signaling, 14697S; beta-actin antibody, 1:2000, Cell Signaling, 4970). Secondary antibodies were applied at RT for 1 hour (anti-rabbit IgG, HRP-linked antibody, Cell Signaling, 7074, anti-mouse IgG, HRP-linked antibody, Cell Signaling, 7076), and then the membrane was developed and detected on X-ray film.\nCells were transfected with Cas9 mRNA for the indicated time point in a 6-well plate and 0.5 μg/mL mRNA for the indicated time point. Total RNA was extracted using the TRIzol reagent according to the manufacturer's protocol. The RNA was reverse transcribed using the iScript Reverse Transcription kit (BioRad) and the real-time qPCR was run on a Bio-Rad C1000 Touch Thermal Cycler (CFX384 Real-time System). Each reaction was made with iTaq Universal SYBR Green 2× Supermix (Bio-Rad). The qPCR program is as follows:\nHuman β-actin was used as a control and mRNA levels were normalized to fold actin and plotted as an average of two independent experiments."}, "[2]": {"system": "HeLa-Luc-Cas9 cells; IGROV1 cells", "assay": "Delivery efficacy of ZA3-Ep10 versus cationic structural analogue (siLuc, sgLuc, Luc mRNA)", "format": "cell-based", "conditions": "siRNA, sgRNA and mRNA cargos; 7.5:1 weight ratio", "description": "The ZNP or LNP formulation was fixed at 7.5:1 weight ratio ZAL or Cationic analogue to RNA. The lipid mixture for the NPs was 50:38.5:0.5 ZAL or cationic analogue: cholesterol: PEG-lipid, while for the A3-Ep14 NPs the zwitterionic phospholipid was titrated from 0 to 50% in the lipid mix. The nanoparticles were formulated by manual mixing using the in vitro formulation protocol. RNA binding was determined by the Ribogreen assay (N=3+/−standard deviation), while nanoparticle size was determined by dynamic light scattering (N=3+/−standard deviation). Luciferase silencing or editing of siLuc and sgLuc NPs was assayed in HeLa-Luc-Cas9 cells (7.35 nM sgRNA, 17.9 nM siRNA), while luciferase expression by Luc mRNA NPs was evaluated in IGROV1 cells (0.77 nM mRNA). Cells were assays after 40 h incubation time by the One-Glo+Tox assay and plotted with viability (dots) and luciferase expression (bars) as mean+/−standard deviation (N=4)."}, "[3]": {"system": "HeLa-Luc-Cas9 cells", "assay": "Kinetic assay of sgRNA and siRNA delivery (luciferase expression over time)", "format": "cell-based", "description": "The kinetics of luciferase expression after silencing/editing by siRNA and sgRNA were determined in HeLa-Luc-Cas9 cells. For time points <48 h, ZNPs encapsulating sgRNA or siRNA were delivered to HeLa-Luc-Cas9 cells in 96-well plates at a density of 5K cells per well. After 0.5, 1, 2, 4, 11, 20, 30 and 44 h time point, the cell viability and luciferase expression were determined by the One-Glow+Tox assay. For longer time points, cells were treated in 6-well plates. Beginning at the 2 day time point, cells were aspirated, washed with 1×PBS, trypsinized in 200 μL trypsin and re-suspended in 1800 μL medium. 1 mL of each cell suspension was added to a fresh 6-well plate containing 1 mL DMEM (2 mL total) and returned to the incubator. Of the remaining cell suspension, 50 μL was transferred to a 96-well white-opaque plate (10 wells per sample). Cell viability was determined using the Cell-Titer Glo assay normalized to untreated cells, while relative luciferase expression was determined using the One-Glo assay and normalized against control (siCtrl or sgCtrl). Data was plotted as an average of 5 measurements+/−standard deviation."}, "[4]": {"assay": "Nanoparticle size by dynamic light scattering", "format": "physicochemical", "conditions": "Luc mRNA NPs, varied PEG-lipid", "description": "Nanoparticle property characterization: Physical properties were measured using a Zetasizer Nano ZS (Malvern) with an He—Ne laser (λ=632 nm). Particle sizes were measured by dynamic light scattering (DLS) (5 measurements, 3 runs×10 seconds, automatic attenuator setting) by 173° back scattering. Zeta potential was measured in a folded capillary cell (Malvern) with samples diluted in PBS for ZAL NPs or citrate phosphate buffer pH 7.4 for CSAL NPs.\nPhysical properties were measured using a Zetasizer Nano ZS (Malvern) with an He—Ne laser (λ=632 nm). Particle sizes were measured by dynamic light scattering (DLS) (5 measurements, 3 runs×10 seconds, automatic attenuator setting) by 173° back scattering. Zeta potential was measured in a folded capillary cell (Malvern) with samples diluted in PBS for ZAL NPs or citrate phosphate buffer pH 7.4 for CSAL NPs."}},
  "data": [
    {"smiles": "CCCCCCCCC(O)CN(CCC(=O)NCC[N+](C)(C)CCCS(=O)(=O)[O-])CCN(CCN(CC(O)CCCCCCCC)CC(O)CCCCCCCC)CCN(CC(O)CCCCCCCC)CC(O)CCCCCCCC", "note": "(stereo not drawn) [ZA3-Ep10]", "values": [
      {"measurement": "time of highest Cas9 protein expression", "setting": "[1]; A549 cells, low at 4 h, increased by 12 h", "value": 36, "unit": "h"},
      {"measurement": "level of Cas9 mRNA", "setting": "[1]; after 4 h incubation", "value": "> 4", "unit": "fold actin"},
      {"measurement": "level of Cas9 mRNA", "setting": "[1]; over the next 45 h", "value": 0.7, "unit": "fold actin"},
      {"measurement": "efficacy compared with cationic analogue", "setting": "[2]", "value": "outperformed the cationic analogue supplemented with phospholipid"},
      {"measurement": "decrease of luciferase expression", "setting": "[3]; sgLuc, 20 h", "value": 40, "unit": "%"},
      {"measurement": "decrease of luciferase expression", "setting": "[3]; sgLuc, after 2 days", "value": 95, "unit": "%"},
      {"measurement": "remaining luciferase expression", "setting": "[3]; sgLuc, persisted throughout the assay (9 days)", "value": 5, "unit": "%"},
      {"measurement": "time luciferase remained low", "setting": "[3]; siLuc", "value": "about 3 days"},
      {"measurement": "time until protein expression reached baseline level", "setting": "[3]; siLuc, after transfection", "value": 6, "unit": "days"},
      {"measurement": "luciferase silenced", "setting": "[3]; siLuc, by 20 h", "value": 92, "unit": "%"},
      {"measurement": "decrease of luciferase expression", "setting": "[3]; siLuc, within the first 4 h", "value": 40, "unit": "%"},
      {"measurement": "change in ZNP size versus PEG lipid ratio", "setting": "[4]", "value": "modest change"}
    ]}
  ]
}
